{"source": "EPA's ToxRefDB 2", "key": {"mouse [1]": {"test_system": "mouse", "conditions": "Carcinogenicity, Charles River, Oral, Feed, dose end: 104 week, group: systemic"}, "rat [2]": {"test_system": "rat", "conditions": "Prenatal developmental toxicity study, sprague dawley, Oral, Gavage/Intubation, dose end: 15 GD"}, "dog [3]": {"test_system": "dog", "conditions": "Chronic toxicity; beagle; Oral; Feed; dose end: 52 week; group: systemic; systemic / organ weight / liver / relative to body weight + systemic / hematology / platelet / platelet + systemic / organ weight / kidney…"}, "rat [4]": {"test_system": "rat", "conditions": "Subchronic oral toxicity in rodents, sprague dawley, Feed, dose end: 13 week, group: systemic, systemic / pathology gross / kidney / discolored + systemic / in life observation / body weight / body weight + systemic / in life …"}, "dog [5]": {"test_system": "dog", "conditions": "Chronic toxicity, beagle, Oral, Feed, dose end: 52 week, group: systemic"}, "dog [6]": {"test_system": "dog", "conditions": "Subchronic oral toxicity in nonrodent, beagle, Feed, dose end: 13 week, group: systemic, systemic / clinical chemistry / albumin-globulin ratio / albumin-globulin ratio + systemic / clinical chemistry / aspartate aminotransferase…"}, "mouse [7]": {"test_system": "mouse", "conditions": "Subchronic oral toxicity in rodents, cd1, Feed, dose end: 13 week, group: systemic, systemic / pathology microscopic / liver / lipid deposition"}, "rat [8]": {"test_system": "rat", "conditions": "Prenatal developmental toxicity study, wistar, Oral, Gavage/Intubation, dose end: 16 GD"}, "rat [9]": {"test_system": "rat", "conditions": "Combined chronic toxicity/carcinogenicity, sprague dawley, Oral, Feed, dose end: 104 week, group: systemic"}, "rat [10]": {"test_system": "rat", "conditions": "Prenatal developmental toxicity study; wistar; Oral; Feed; dose end: 15 GD; group: maternal; systemic / in life observation / body weight / body weight gain + systemic / in life observation / food consumption / food consumption"}, "[11]": {"conditions": "systemic / in life observation / body weight / body weight gain + systemic / pathology microscopic / lung / carcinoma + systemic / in life …"}, "[12]": {"conditions": "group: developmental, developmental / developmental malformation / kidney / small renal papilla"}, "[13]": {"conditions": "group: developmental, developmental / developmental malformation / kidney / small renal papilla + developmental / developmental malformation / spinal cord / …"}, "[14]": {"conditions": "group: maternal, systemic / in life observation / food consumption / food consumption + systemic / pathology gross / spleen / discolored"}, "[15]": {"conditions": "group: maternal, systemic / in life observation / food consumption / food consumption + systemic / pathology gross / spleen / discolored + reproductive / …"}, "[16]": {"conditions": "systemic / hematology / [other] / [other] + systemic / hematology / erythroblast / erythroblast + systemic / hematology / monocytes / …"}, "[17]": {"conditions": "systemic / hematology / erythroblast / erythroblast"}, "[18]": {"conditions": "group: developmental, developmental / developmental malformation / kidney / dilated renal pelvis + developmental / developmental malformation / ureter / distended"}, "[19]": {"conditions": "group: maternal, systemic / in life observation / clinical signs / salivation"}, "[20]": {"conditions": "systemic / in life observation / body weight / body weight + systemic / in life observation / body weight / body weight gain + systemic / in…"}}}
{"smiles": "CN(C)C(=O)Nc1cccc(C(F)(F)F)c1", "note": "[Fluometuron]", "values": [{"measurement": "LOAEL", "setting": "mouse [1]; systemic / in life observation / body weight / body weight gain", "value": 260, "unit": "mg/kg/day"}, {"measurement": "NEL", "setting": "mouse [1]; [11]", "value": 1.2, "unit": "mg/kg/day"}, {"measurement": "NOAEL", "setting": "mouse [1]; [11]", "value": 61.5, "unit": "mg/kg/day"}, {"measurement": "LEL", "setting": "mouse [1]; systemic / pathology microscopic / lung / carcinoma + systemic / in life observation / clinical signs / [other]", "value": 61.5, "unit": "mg/kg/day"}, {"measurement": "LEL", "setting": "rat [2]; [12]", "value": 100, "unit": "mg/kg/day"}, {"measurement": "LOAEL", "setting": "rat [2]; [12]", "value": 100, "unit": "mg/kg/day"}, {"measurement": "NEL", "setting": "rat [2]; [13]", "value": 10, "unit": "mg/kg/day"}, {"measurement": "NOAEL", "setting": "rat [2]; [13]", "value": 10, "unit": "mg/kg/day"}, {"measurement": "LEL", "setting": "rat [2]; [14]", "value": 100, "unit": "mg/kg/day"}, {"measurement": "LOAEL", "setting": "rat [2]; [14]", "value": 100, "unit": "mg/kg/day"}, {"measurement": "NEL", "setting": "rat [2]; [15]", "value": 10, "unit": "mg/kg/day"}, {"measurement": "NOAEL", "setting": "rat [2]; [15]", "value": 10, "unit": "mg/kg/day"}, {"measurement": "NEL", "setting": "dog [3]", "value": 237, "unit": "mg/kg/day"}, {"measurement": "NOAEL", "setting": "dog [3]", "value": 237, "unit": "mg/kg/day"}]}
{"smiles": "COC(=O)c1ccc(I)cc1S(=O)(=O)[N-]C(=O)Nc1nc(C)nc(OC)n1.[Na+]", "note": "[Iodosulfuron-methyl-sodium]", "values": [{"measurement": "LEL", "setting": "rat [4]", "value": 347, "unit": "mg/kg/day"}, {"measurement": "LOAEL", "setting": "rat [4]", "value": 347, "unit": "mg/kg/day"}, {"measurement": "LOAEL", "setting": "dog [5]; [16]", "value": 43.7, "unit": "mg/kg/day"}, {"measurement": "NOAEL", "setting": "dog [5]; [16]", "value": 7.25, "unit": "mg/kg/day"}, {"measurement": "LEL", "setting": "dog [5]; [17]", "value": 41.8, "unit": "mg/kg/day"}, {"measurement": "NEL", "setting": "dog [5]; [17]", "value": 7.37, "unit": "mg/kg/day"}, {"measurement": "LEL", "setting": "dog [6]", "value": 49, "unit": "mg/kg/day"}, {"measurement": "LOAEL", "setting": "dog [6]", "value": 49, "unit": "mg/kg/day"}, {"measurement": "NEL", "setting": "dog [6]", "value": 8.1, "unit": "mg/kg/day"}, {"measurement": "NOAEL", "setting": "dog [6]", "value": 8.1, "unit": "mg/kg/day"}, {"measurement": "LEL", "setting": "mouse [7]", "value": 139, "unit": "mg/kg/day"}, {"measurement": "LOAEL", "setting": "mouse [7]", "value": 139, "unit": "mg/kg/day"}, {"measurement": "NEL", "setting": "mouse [7]", "value": "< 139", "unit": "mg/kg/day"}, {"measurement": "NOAEL", "setting": "mouse [7]", "value": "< 139", "unit": "mg/kg/day"}, {"measurement": "LEL", "setting": "rat [8]; [18]", "value": 100, "unit": "mg/kg/day"}, {"measurement": "LOAEL", "setting": "rat [8]; [18]", "value": 100, "unit": "mg/kg/day"}, {"measurement": "NEL", "setting": "rat [8]; [18]", "value": "< 100", "unit": "mg/kg/day"}, {"measurement": "NOAEL", "setting": "rat [8]; [18]", "value": "< 100", "unit": "mg/kg/day"}, {"measurement": "LEL", "setting": "rat [8]; [19]", "value": 1000, "unit": "mg/kg/day"}, {"measurement": "LOAEL", "setting": "rat [8]; [19]", "value": 1000, "unit": "mg/kg/day"}, {"measurement": "NEL", "setting": "rat [8]; [19]", "value": 315, "unit": "mg/kg/day"}, {"measurement": "NOAEL", "setting": "rat [8]; [19]", "value": 315, "unit": "mg/kg/day"}, {"measurement": "LOAEL", "setting": "rat [9]; systemic / in life observation / body weight / body weight + systemic / in life observation / body weight / body weight gain", "value": 331, "unit": "mg/kg/day"}, {"measurement": "LEL", "setting": "rat [9]; [20]", "value": 29.7, "unit": "mg/kg/day"}, {"measurement": "NEL", "setting": "rat [9]; [20]", "value": 2.96, "unit": "mg/kg/day"}, {"measurement": "NOAEL", "setting": "rat [9]; [20]", "value": 29.7, "unit": "mg/kg/day"}]}
{"smiles": "CC(C)(C)c1ccc(O)cc1", "note": "[4-tert-Butylphenol]", "values": [{"measurement": "LEL", "setting": "rat [10]", "value": 3590, "unit": "mg/kg/day"}, {"measurement": "LOAEL", "setting": "rat [10]", "value": 3590, "unit": "mg/kg/day"}]}
